Laboratory results: patent publication US10869933B2, “Oligomer-phenothiazine conjugates” (Nektar Therapeutics, priority 2009, dated 2020)
Where two headings read alike, the source gives them in different places.

Columns and labels:
[1] = molecular target: T1, recombinant human H1 histamine receptor (Homo sapiens, UniProt P35367); assay: Histamine H1 receptor radioligand binding; conditions: for Ki: [3H]-Pyrilamine 1.2 nM, human rCHO cell membranes; for Fold change in binding affinity at H1: relative to Promethazine
T1 construct: expressed in transfected cells; host or cells: CHO cells (membranes)
T1 sequence (P35367 whole entry): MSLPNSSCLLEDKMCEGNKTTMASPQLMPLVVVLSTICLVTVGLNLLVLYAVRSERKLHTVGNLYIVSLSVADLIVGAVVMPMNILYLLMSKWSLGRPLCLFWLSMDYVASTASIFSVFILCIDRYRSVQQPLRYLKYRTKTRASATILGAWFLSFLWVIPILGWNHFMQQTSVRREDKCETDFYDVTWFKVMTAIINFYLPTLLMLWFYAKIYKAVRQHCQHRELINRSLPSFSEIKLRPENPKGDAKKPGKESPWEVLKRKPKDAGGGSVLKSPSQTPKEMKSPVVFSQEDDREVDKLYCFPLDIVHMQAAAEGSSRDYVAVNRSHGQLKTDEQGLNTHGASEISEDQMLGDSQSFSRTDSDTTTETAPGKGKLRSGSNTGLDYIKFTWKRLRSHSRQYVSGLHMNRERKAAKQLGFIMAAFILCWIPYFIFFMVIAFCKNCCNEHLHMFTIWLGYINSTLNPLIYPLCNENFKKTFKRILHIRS
Method: (§1) The radioligands used are specific for each receptor subtype and the assay conditions are described in Table 2. […] Ki is obtained using the Cheng Prusoff correction using experimental Kd vales that are determined under these assay conditions.

[2] = molecular target: T2, recombinant human H2 histamine receptor (Homo sapiens, UniProt P25021); assay: Histamine H2 receptor radioligand binding; conditions: [125I]-Aminopotentidine 0.1 nM, human rCHO-K1 cell membranes; up to 30 μM
T2 construct: expressed in transfected cells; host or cells: CHO cells (membranes)
T2 sequence (P25021 whole entry): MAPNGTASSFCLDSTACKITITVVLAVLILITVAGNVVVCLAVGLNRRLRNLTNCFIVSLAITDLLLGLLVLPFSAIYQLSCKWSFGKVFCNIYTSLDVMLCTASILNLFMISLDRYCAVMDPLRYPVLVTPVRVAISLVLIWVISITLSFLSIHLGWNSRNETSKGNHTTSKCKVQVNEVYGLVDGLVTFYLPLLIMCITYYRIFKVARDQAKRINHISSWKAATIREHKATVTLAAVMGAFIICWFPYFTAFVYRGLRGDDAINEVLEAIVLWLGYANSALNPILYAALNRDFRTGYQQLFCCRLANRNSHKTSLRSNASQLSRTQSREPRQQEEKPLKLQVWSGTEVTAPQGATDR
Method: as §1

[3] = molecular target: T3, recombinant human H3 histamine receptor (Homo sapiens, UniProt Q9Y5N1); assay: Histamine H3 receptor radioligand binding; conditions: [3H]R(−)-α-Methylhistamine 3 nM, human rCHO-K1 cell membranes; up to 30 μM
T3 construct: expressed in transfected cells; host or cells: CHO cells (membranes)
T3 sequence (Q9Y5N1 whole entry): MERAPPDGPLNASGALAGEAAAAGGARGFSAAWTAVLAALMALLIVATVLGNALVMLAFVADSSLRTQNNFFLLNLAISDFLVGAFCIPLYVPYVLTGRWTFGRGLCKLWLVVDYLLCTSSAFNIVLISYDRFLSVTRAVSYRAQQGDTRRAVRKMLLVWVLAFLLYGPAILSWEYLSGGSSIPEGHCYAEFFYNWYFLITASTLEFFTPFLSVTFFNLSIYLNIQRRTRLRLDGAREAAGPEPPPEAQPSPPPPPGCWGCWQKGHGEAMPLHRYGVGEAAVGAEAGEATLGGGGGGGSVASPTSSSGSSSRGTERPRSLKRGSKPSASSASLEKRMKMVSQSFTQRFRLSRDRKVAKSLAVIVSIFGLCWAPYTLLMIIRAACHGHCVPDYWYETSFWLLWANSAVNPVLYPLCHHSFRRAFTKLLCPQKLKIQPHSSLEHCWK
Method: as §1

[4] = molecular target: T4, recombinant human H4 histamine receptor (Homo sapiens, UniProt Q9H3N8); assay: Histamine H4 receptor radioligand binding; conditions: [3H]Histamine 8.2 nM, human rCHO-K1 cell membranes; up to 30 μM
T4 construct: expressed in transfected cells; host or cells: CHO cells (membranes)
T4 sequence (Q9H3N8 whole entry): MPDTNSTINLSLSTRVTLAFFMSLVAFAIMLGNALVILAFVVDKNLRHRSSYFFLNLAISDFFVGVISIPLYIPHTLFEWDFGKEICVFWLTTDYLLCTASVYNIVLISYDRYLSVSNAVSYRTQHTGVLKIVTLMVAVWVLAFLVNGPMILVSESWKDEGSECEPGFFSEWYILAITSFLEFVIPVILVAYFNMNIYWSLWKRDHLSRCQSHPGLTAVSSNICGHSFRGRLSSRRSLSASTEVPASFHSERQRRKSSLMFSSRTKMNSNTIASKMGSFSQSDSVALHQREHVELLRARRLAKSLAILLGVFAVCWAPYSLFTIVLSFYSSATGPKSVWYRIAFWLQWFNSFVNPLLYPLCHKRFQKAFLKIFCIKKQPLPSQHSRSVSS
Method: as §1

[5] = pKa determination (Sirius GLpKa); assay type: physicochemical
Method: (§2) A blank standardization has to be completed first and passed in order to conduct the compound experiments. The solutions used by the instrument for the blank titration include water, a pH solution, and a surfactant (TRITON X-100). The TRITON X-100 was purchased commercially from Sirus. The 0.5% solution of TRITON X-100 was used in the experiment. In a 1 L volumetric flask 5 mls of TRITON X-100 is added and MILLI Q water to volume. The vessels used by the instrument were filled to ⅓ of their volume with each solution. Therefore the assay tray contains one vessel for water, pH solution, and surfactant for the blank run. The temperature of the water bath for the instrument is 25° C. The blank is calculated as an average of three “good” experiments. The “good” was denoted by a green check mark next to the assay number in the computer software. Once the blank was run successfully the instrument was ready to conduct the experiments.
The pKa had to be determined first in order to calculate the Log P. The ΔPI is used to determine the pKa needed for the Log P experiment followed by the conjugates. Promethazine was first weighed into a vessel. […] The same procedure was followed for each PEG-Promethazine conjugate n=3-9. The vessels were placed in the assay tray of the instrument. A method had to be set up for the pKa run. The experimental parameters are entered into the computer software. These included sample weight, molecular weight, assay type (aqueous pKa), number of assays (three), and titration range (generally 3.5-12). The run was started. There are three measurements for each run that are averaged to obtain the final results from the data points collected in the calculation software. All runs were denoted as “good” by the green check mark next to the assay number.

[6] = Log P determination (Sirius GLpKa); assay type: physicochemical; conditions: Partition Log P, average of three measurements
Method: as §2
An additional method has to be set up for the Log P determinations for each compound. […] The vessels are placed in the assay tray of the instrument. The experimental parameters are entered into the computer. These included sample weight, molecular weight, assay type (Partition Log P), number of assays (three), and pKa value of the parent drug from the previous experiment. The run was started. There are three measurements for each run that are averaged to obtain the final results from the data points collected in the calculation software. All runs were denoted as “good” by the green check mark next to the assay number.

[7] = molecular target: T5, recombinant human M2 muscarinic acetylcholine receptor (Homo sapiens, UniProt P08172); assay: Muscarinic M2 receptor radioligand binding; conditions: 3H-N-Methylscopolamine 0.8 nM, CHO cell membranes
T5 construct: expressed in transfected cells; host or cells: CHO cells (membranes)
T5 sequence (P08172 1-466): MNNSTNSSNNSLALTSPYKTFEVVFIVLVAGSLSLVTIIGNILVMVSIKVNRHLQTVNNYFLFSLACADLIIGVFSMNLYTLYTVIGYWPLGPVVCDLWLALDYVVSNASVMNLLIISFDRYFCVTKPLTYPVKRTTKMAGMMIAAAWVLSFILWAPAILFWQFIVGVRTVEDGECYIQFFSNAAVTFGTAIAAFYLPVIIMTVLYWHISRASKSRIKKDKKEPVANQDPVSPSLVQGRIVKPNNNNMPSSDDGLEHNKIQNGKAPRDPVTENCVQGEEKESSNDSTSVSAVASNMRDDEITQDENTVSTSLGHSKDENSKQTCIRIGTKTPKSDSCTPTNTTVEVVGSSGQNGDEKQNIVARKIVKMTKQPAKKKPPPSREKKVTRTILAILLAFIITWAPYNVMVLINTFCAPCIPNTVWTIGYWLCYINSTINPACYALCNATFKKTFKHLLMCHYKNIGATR

[8] = molecular target: T6, recombinant human M4 muscarinic acetylcholine receptor (Homo sapiens, UniProt P08173); assay: Muscarinic M4 receptor radioligand binding; conditions: 3H-N-Methylscopolamine 0.8 nM, CHO cell membranes
T6 construct: expressed in transfected cells; host or cells: CHO cells (membranes)
T6 sequence (P08173 1-479): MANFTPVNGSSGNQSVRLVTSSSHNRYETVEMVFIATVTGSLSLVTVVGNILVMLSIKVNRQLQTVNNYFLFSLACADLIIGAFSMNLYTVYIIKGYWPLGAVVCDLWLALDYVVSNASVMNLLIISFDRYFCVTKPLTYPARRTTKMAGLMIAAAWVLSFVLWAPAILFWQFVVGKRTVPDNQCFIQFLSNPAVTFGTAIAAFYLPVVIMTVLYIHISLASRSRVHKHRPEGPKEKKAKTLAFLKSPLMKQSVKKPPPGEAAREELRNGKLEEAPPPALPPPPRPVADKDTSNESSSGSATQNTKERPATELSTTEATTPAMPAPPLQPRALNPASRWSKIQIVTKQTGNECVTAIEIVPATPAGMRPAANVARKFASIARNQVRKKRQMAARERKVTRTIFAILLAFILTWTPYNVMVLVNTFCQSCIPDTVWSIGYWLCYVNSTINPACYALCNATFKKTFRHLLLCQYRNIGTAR

[9] = molecular target: T7, recombinant human M5 muscarinic acetylcholine receptor (Homo sapiens, UniProt P08912); assay: Muscarinic M5 receptor radioligand binding; conditions: 3H-N-Methylscopolamine 0.8 nM, CHO cell membranes
T7 construct: expressed in transfected cells; host or cells: CHO cells (membranes)
T7 sequence (P08912 1-532): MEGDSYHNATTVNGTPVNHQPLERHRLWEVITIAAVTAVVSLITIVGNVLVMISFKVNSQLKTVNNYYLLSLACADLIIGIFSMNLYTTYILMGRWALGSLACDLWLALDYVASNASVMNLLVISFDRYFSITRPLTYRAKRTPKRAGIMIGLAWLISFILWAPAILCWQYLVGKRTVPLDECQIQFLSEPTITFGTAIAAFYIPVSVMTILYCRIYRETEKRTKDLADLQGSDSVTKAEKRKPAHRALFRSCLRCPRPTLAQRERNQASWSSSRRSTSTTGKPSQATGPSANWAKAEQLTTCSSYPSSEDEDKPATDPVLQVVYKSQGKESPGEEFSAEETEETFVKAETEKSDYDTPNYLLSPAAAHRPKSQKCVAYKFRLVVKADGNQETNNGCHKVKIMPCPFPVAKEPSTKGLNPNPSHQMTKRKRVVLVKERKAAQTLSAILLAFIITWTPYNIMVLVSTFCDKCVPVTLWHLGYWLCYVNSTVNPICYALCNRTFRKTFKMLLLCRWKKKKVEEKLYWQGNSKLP

[10] = Brain:plasma ratio; assay type: in vivo; conditions: rat, brain and plasma, iv; rats, 5 mg/kg intravenously, one hour after injection; brain (ng/g) / plasma (ng/mL)
Method: An hour following injection, the animals were sacrificed and plasma and brain were collected and frozen immediately. Following tissue and plasma extractions, concentrations of the compounds in brain and plasma were measured using LC-MS/MS. The brain:plasma ratio was calculated as the ratio of measured concentrations in the brain(ng/g) and plasma (ng/mL).

[11] = tested on: CD-1 male mice (visceral pain); assay: Analgesic assay: acetic acid writhing; assay type: in vivo; conditions: Dose 10 mg/kg, single pretreatment 30 min before IP 0.5% acetic acid; contractions counted 0-20 min
Method: An analgesic assay was used to determine whether a given compound can reduce and/or prevent visceral pain in mice.
Mice were treated according to standard protocols.
Contractions were counted between 0 and 20 minutes after the injection. The animals were used once.

[12] = aqueous solution, read-out: pKa

Row | Molecule | Ki [1] [nM] | Fold change in binding affinity at H1 [1] | Ki [2] [nM] | Ki [3] [nM] | Ki [4] [nM] | pKa [5, 12] | logP ([6]; read-out: LogP) | Ki [7] [nM] | Ki [8] [nM] | Ki [9] [nM] | Kp at 1 h [10] | pKa ([5]; aqueous pKa, 25° C., average of three measurements) | logP [6] | Acetic Acid Writhing Mean (% Morphine) [11] [% Morphine]
1 | COCCOCCOCCN(C)C(C)CN1c2ccccc2Sc2ccccc21 (stereo not shown) [mPEG3-N-Promethazine, mPEG3-N-promethazine] | 2.28 | 8.20 | > 30000 | > 30000 | > 30000 | 8.4 | 3.65 |  |  |  |  |  |  | 
2 | CC(CN1c2ccccc2Sc2ccccc21)N(C)C (stereo not shown) [Promethazine, reference compound] |  |  | > 30000 | > 30000 | > 30000 | 8.99 | 3.43 | 26.4 | 7.74 | 9.34 |  |  |  | 
3 | COCCOCCOCCOCCOCCOCc1ccc2c(c1)Sc1ccccc1N2CC(C)N(C)C (stereo not shown) [mPEG5-O-Promethazine, mPEG5-O-promethazine] | 7.16 | 25.76 | > 30000 | > 30000 | > 30000 |  |  |  |  |  |  |  |  | 
4 | COCCOCCOCCOCCN(C)C(C)CN1c2ccccc2Sc2ccccc21 (stereo not shown) [mPEG4-N-Promethazine, mPEG4-N-promethazine] | 1.95 | 7.01 | > 30000 | > 30000 | > 30000 | 8.45 | 3.51 |  |  |  | 1.86 |  |  | 
5 | COCCOCCOCCOCCOCCOCCOCCOCc1ccc2c(c1)Sc1ccccc1N2CC(C)N(C)C (stereo not shown) [mPEG7-O-Promethazine, mPEG7-O-promethazine] | 33.2 | 119.42 | > 30000 | > 30000 | > 30000 |  |  |  |  |  |  |  |  | 
6 | mPEG8-N-Promethazine |  |  |  |  |  |  |  |  |  |  |  | 8.238 | 2.648 | 
7 | mPEG9-N-promethazine |  |  | > 30000 | > 30000 |  |  |  | 308 |  |  |  |  |  | −59.69
8 | COCCOCCOCCOCc1ccc2c(c1)Sc1ccccc1N2CC(C)N(C)C (stereo not shown) [mPEG3-O-Promethazine, mPEG3-O-promethazine] | 7.62 | 27.41 | > 30000 | > 30000 | > 30000 |  |  |  |  |  |  |  |  | 
9 | COCCOCCOCCOCCOCCOCCOCCOCCOCCOCc1ccc2c(c1)Sc1ccccc1N2CC(C)N(C)C (stereo not shown) [mPEG9-O-Promethazine, mPEG9-O-promethazine] | 45.1 | 162.23 | > 30000 | > 30000 | > 30000 |  |  |  |  |  |  |  |  | 
10 | COCCOCCOCCOCCOCCN(C)C(C)CN1c2ccccc2Sc2ccccc21 (stereo not shown) [mPEG5-N-Promethazine, mPEG5-N-promethazine] | 8.53 | 30.68 | > 30000 | > 30000 | > 30000 | 8.67 | 3.6 | 817 |  |  | 0.243 |  |  | 
11 | COCCOCCOCCOCCOCCOCCN(C)C(C)CN1c2ccccc2Sc2ccccc21 (stereo not shown) [mPEG6-N-Promethazine, mPEG6-N-promethazine] | 13.2 | 47.48 | > 30000 | > 30000 | > 30000 | 8.53 | 3.25 | 337 |  | 1740 | 0.098 |  |  | 
12 | COCCOCCOCCOCCOCCOCCOCCN(C)C(C)CN1c2ccccc2Sc2ccccc21 (stereo not shown) [mPEG7-N-Promethazine, mPEG7-N-promethazine] | 16.9 | 60.79 | > 30000 | > 30000 | > 30000 | 8.49 | 3 | 90 | 435 | 905 | 0.112 |  |  | 
